Results from US8791132B2, “Compounds and methods for treatment of hypertension” (Medivation Technologies, Inc., priority 2011, dated 2014).
Where “and” joins values, the source holds several entries; their conditions need not be identical. Equal entries are not always repeated.

Experiments:
[1] = biological target: T1, human recombinant adrenergic α2B receptor (Homo sapiens, UniProt P18089); experiment: Radioligand binding, adrenergic α2B ([3H]Rauwolscine); conditions: for Percentage inhibition of ligand binding, Adrenergic α2B: 0.03 μM compound; for Percentage inhibition of ligand binding, Adrenergic α2B (0.03 μM): compound at 0.03 μM; for Percentage inhibition of ligand binding, Adrenergic α2B (0.03 μM) / inhibition at 0.03 µM: [3H]Rauwolscine, repeat datapoints each shown; for inhibition at 0.03 µM: read-out: Percentage inhibition of ligand binding, Adrenergic α2B (0.03 μM), compound at 0.03 μM
T1 construct: expressed in transfected cells; host or cells: CHO-K1
T1 sequence (P18089 1-450): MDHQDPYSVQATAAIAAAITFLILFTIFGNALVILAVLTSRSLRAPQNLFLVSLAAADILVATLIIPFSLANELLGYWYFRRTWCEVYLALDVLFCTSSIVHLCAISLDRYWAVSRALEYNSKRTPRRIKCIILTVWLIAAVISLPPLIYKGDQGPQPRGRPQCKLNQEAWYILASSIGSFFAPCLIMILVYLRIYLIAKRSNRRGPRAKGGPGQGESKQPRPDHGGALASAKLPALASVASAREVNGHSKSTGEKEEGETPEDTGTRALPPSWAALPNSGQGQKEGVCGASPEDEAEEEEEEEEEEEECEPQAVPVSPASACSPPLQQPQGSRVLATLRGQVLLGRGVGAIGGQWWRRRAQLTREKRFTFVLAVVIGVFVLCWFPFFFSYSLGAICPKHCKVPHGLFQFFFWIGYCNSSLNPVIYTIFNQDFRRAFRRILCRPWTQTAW
In short: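 Assay used CHO-K1-expressed human α2B receptor in Tris-HCl pH 7.4 buffer with MgCl2, EDTA and BSA; 60 min incubation at 25 °C.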

[2] = biological target: T2, rat adrenergic α1B receptor (Rattus norvegicus, UniProt P15823); experiment: Radioligand binding, adrenergic α1B ([3H]Prazosin); conditions: for Percentage inhibition of ligand binding, Adrenergic α1B: 0.1 μM compound; for Percentage inhibition of ligand binding, Adrenergic α1B (0.1 μM): compound at 0.1 μM; for inhibition at 0.1 µM: read-out: Percentage inhibition of ligand binding, Adrenergic α1B (0.1 μM), compound at 0.1 μM
T2 construct: rat adrenergic α1B receptor obtained from Wistar Rat liver; from tissue; host or cells: Wistar rat liver
T2 sequence (P15823 1-515): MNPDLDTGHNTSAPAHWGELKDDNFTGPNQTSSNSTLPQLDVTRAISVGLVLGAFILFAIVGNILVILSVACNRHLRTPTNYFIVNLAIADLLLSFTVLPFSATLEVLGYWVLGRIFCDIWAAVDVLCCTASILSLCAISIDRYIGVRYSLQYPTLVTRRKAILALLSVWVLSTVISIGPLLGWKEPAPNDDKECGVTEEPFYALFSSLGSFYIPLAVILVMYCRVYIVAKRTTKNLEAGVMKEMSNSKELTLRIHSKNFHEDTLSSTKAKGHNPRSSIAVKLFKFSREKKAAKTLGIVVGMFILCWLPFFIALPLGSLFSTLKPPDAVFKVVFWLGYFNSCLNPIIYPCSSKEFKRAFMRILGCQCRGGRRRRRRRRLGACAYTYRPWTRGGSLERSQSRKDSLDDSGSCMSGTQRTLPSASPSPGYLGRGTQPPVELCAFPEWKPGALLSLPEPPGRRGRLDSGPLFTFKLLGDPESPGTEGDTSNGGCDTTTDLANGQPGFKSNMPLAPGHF
In short: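 Rat α1B receptor from Wistar rat liver was incubated with 0.25 nM [3H]prazosin for 60 min at 25 °C in 50 mM Tris-HCl, pH 7.4, 0.5 mM EDTA. Non-specific binding was defined with 10 μM phentolamine. Bound radioligand was measured by filtration and counting, reported as percent inhibition of specific binding.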

[3] = biological target: T3, human recombinant adrenergic α2A receptor (Homo sapiens, UniProt P08913); experiment: Radioligand binding, adrenergic α2A ([3H]MK-912); conditions: for Percentage inhibition of ligand binding, Adrenergic α2A: 0.1 μM compound; for Percentage inhibition of ligand binding, Adrenergic α2A / Percentage inhibition of ligand binding, Adrenergic α2A (0.1 μM): 0.1 µM; for Percentage inhibition of ligand binding, Adrenergic α2A (0.1 μM): compound at 0.1 μM
T3 construct: expressed in transfected cells; host or cells: insect Sf9 cells
T3 sequence (P08913 1-465): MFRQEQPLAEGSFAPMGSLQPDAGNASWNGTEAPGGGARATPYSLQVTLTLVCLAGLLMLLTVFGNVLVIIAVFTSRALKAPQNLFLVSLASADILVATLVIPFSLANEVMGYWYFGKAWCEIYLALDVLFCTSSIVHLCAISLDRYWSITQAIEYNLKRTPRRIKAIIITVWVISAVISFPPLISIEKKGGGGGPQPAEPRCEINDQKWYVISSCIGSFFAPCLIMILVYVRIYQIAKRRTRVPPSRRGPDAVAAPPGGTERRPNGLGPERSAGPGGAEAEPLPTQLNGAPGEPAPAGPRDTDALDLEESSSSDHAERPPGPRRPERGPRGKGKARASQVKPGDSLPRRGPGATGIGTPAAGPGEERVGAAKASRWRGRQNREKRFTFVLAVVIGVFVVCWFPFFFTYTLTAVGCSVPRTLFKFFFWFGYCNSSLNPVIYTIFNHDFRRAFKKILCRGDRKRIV
In short: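 Sf9 membranes, 1 nM [3H]MK-912, 60 min, 25 °C, Tris-HCl pH 7.4/MgCl2/EDTA buffer. NSB: 10 μM WB-4101. Filtration, counting; % inhibition of specific binding.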

[4] = [3H]Prazosin, repeat datapoints each shown, 0.1 µM
[5] = [3H]MK-912, repeat datapoints each shown
[6] = [3H]Prazosin, repeat datapoints each shown

SMILES	Percentage inhibition of ligand binding, Adrenergic α2B (0.03 μM) ([1]; 0.03 µM)	Percentage inhibition of ligand binding, Adrenergic α1B (0.1 μM) [2, 4]	Percentage inhibition of ligand binding, Adrenergic α2A (0.1 μM) [3, 5]	also measured
Cc1cnc2c(c1)c1c(n2CC(C)(O)c2cccnc2)CCN(C)C1 (single isomer, unassigned) [II-99b]	–	–	–	Percentage inhibition of ligand binding, Adrenergic α2B ([1]; 0.03 µM): 7%; Percentage inhibition of ligand binding, Adrenergic α1B ([2]; 0.1 µM): 5%; Percentage inhibition of ligand binding, Adrenergic α2A [3]: 16%
Cc1cnc2c(c1)c1c(n2CC(O)c2ccc(C)nc2)CCN(C)C1 (single isomer, unassigned) [II-100b]	–	–	–	Percentage inhibition of ligand binding, Adrenergic α2B ([1]; 0.03 µM): 1%; Percentage inhibition of ligand binding, Adrenergic α1B [2]: 24%; Percentage inhibition of ligand binding, Adrenergic α2A [3]: 4%
Cc1cnc2c(c1)c1c(n2CC(C)(O)c2ccc(C(F)(F)F)nc2)CCN(C)C1 (single isomer, unassigned) [II-108a]	27%	13%	−2%	–
Cc1cnc2c(c1)c1c(n2CC(C)(O)c2ccc(C(F)(F)F)nc2)CCN(C)C1 (single isomer, unassigned) [II-108b]	11%	−2%	−6%	–
CN1CCc2c(c3cc(Cl)cnc3n2CC(C)(O)c2ccc(C(F)(F)F)nc2)C1 (single isomer, unassigned) [II-109a]	41%	27%	2%	–
CN1CCc2c(c3cc(Cl)cnc3n2CC(C)(O)c2ccc(C(F)(F)F)nc2)C1 (single isomer, unassigned) [II-109b]	2%	5%	−10%	–
Cc1cnc2c(c1)c1c(n2CC(O)c2ccc(C#N)nc2)CCN(C)C1 (single isomer, unassigned) [II-114a, 5-[2-(3,6-dimethyl-5,6,7,8-tetrahydro-1,6,9-triaza-fluoren-9-yl)-1-hydroxy-ethyl]-pyridine-2-carbonitrile]	–	45%	12%	inhibition at 0.03 µM [1]: 40%
Cc1cnc2c(c1)c1c(n2CC(O)c2ccc(C#N)nc2)CCN(C)C1 (single isomer, unassigned) [II-114b, 5-[2-(3,6-dimethyl-5,6,7,8-tetrahydro-1,6,9-triaza-fluoren-9-yl)-1-hydroxy-ethyl]-pyridine-2-carbonitrile]	–	7%	−5%	Percentage inhibition of ligand binding, Adrenergic α2B (0.03 μM) [1]: 40%
CC(O)(Cn1c2c(c3cc(Cl)ccc31)CN(C1CCC1)CC2)c1cccnc1 (single isomer, unassigned) [II-118b]	−3%	11%	5%	–
Cc1ccc2c(c1)c1c(n2CC(O)c2ccc(F)cc2)CCN2CCCC12 (single isomer, unassigned) [II-120a, 1-(4-fluoro-phenyl)-2-(9-methyl-1,2,3,4,5,10c-hexahydro-3a,6-diaza-cyclopenta[c]fluoren-6-yl)-ethanol]	–	–	65%	inhibition at 0.03 µM [1]: 101%; inhibition at 0.1 µM [2, 6]: 99%
Cc1ccc2c(c1)c1c(n2CC(O)c2ccc(F)cc2)CCN2CCCC12 (single isomer, unassigned) [II-120b, 1-(4-fluoro-phenyl)-2-(9-methyl-1,2,3,4,5,10c-hexahydro-3a,6-diaza-cyclopenta[c]fluoren-6-yl)-ethanol]	98%	100%	98%	–
Cc1ccc2c(c1)c1c(n2CC(C)(O)c2ccc(F)cc2)CCN2CCCC12 (single isomer, unassigned) [II-121a, 2-(4-fluoro-phenyl)-1-(9-methyl-1,2,3,4,5,10c-hexahydro-3a,6-diaza-cyclopenta[c]fluoren-6-yl)-propan-2-ol]	104%	98%	92%	inhibition at 0.03 µM [1]: 103%; inhibition at 0.03 µM ([2]; read-out: Percentage inhibition of ligand binding, Adrenergic α1B (0.03 μM), compound at 0.03 μM, [3H]Prazosin, repeat datapoints each shown): 90%; inhibition at 0.1 µM [2, 6]: 97%; Ki [3]: 4.52 nM; inhibition at 0.03 µM ([3]; read-out: Percentage inhibition of ligand binding, Adrenergic α2A (0.03 μM), compound at 0.03 μM, [3H]MK-912, repeat datapoints each shown): 65%; inhibition at 0.1 µM ([3]; read-out: Percentage inhibition of ligand binding, Adrenergic α2A (0.1 μM), compound at 0.1 μM, [3H]MK-912, repeat datapoints each shown): 91%
Cc1ccc2c(c1)c1c(n2CC(C)(O)c2ccc(F)cc2)CCN2CCCC12 (single isomer, unassigned) [II-121b, 2-(4-fluoro-phenyl)-1-(9-methyl-1,2,3,4,5,10c-hexahydro-3a,6-diaza-cyclopenta[c]fluoren-6-yl)-propan-2-ol]	100% and 103%	93% and 96%	80% and 85%	Ki ([1]; read-out: Ki α2B): 0.22 nM; Percentage inhibition of ligand binding, Adrenergic α1B (0.03 μM) ([2]; compound at 0.03 μM, [3H]Prazosin, repeat datapoints each shown, 0.03 µM): 77%; Ki [3]: 9.18 nM; Percentage inhibition of ligand binding, Adrenergic α2A (0.03 μM) ([3]; compound at 0.03 μM, [3H]MK-912, repeat datapoints each shown, 0.03 µM): 54%
Cc1cc2c3c(n(CC(C)(O)c4cccnc4)c2cc1Cl)CCN(C)C3 (single isomer, unassigned) [II-123a, 1-(7-chloro-2,8-dimethyl-3,4-dihydro-1H-pyrido[4,3-b]indol-5(2H)-yl)-2-(pyridin-3-yl)propan-2-ol]	62%	–	16%	inhibition at 0.1 µM [2, 6]: 41%
Cc1cc2c3c(n(CC(C)(O)c4cccnc4)c2cc1Cl)CCN(C)C3 (single isomer, unassigned) [II-123b, 1-(7-chloro-2,8-dimethyl-3,4-dihydro-1H-pyrido[4,3-b]indol-5(2H)-yl)-2-(pyridin-3-yl)propan-2-ol]	93%	61%	75%	–
Cc1ccc2c(c1Cl)c1c(n2CC(C)(O)c2cccnc2)CCN(C)C1 (single isomer, unassigned) [II-124a, 1-(9-chloro-2,8-dimethyl-3,4-dihydro-1H-pyrido[4,3-b]indol-5(2H)-yl)-2-(pyridin-3-yl)propan-2-ol]	–	−2%	23%	inhibition at 0.03 µM [1]: 26%
